Measured values taken from patent publication US5373040A, “Amorphous solid modification of 2,2',2"-nitrilo[triethyl-tris-(3,3',5,5'-tetra-tert-butyl-1,1'-biphenyl- 2,2'-diyl)phosphite]” (Ciba-Geigy Corporation, priority 1993, dated 1994).

Columns and labels:
[1] = Process stabilization of polypropylene: yellowness index of plaques (ASTM D1925); conditions: 0.075% by weight of each additive, 0.075% calcium stearate
Text: (§1) The test additives are incorporated into the polypropylene by dry blending or, when the additive is a liquid, using a minimum amount of methylene chloride solvent. The solvent is then removed by evaporation under reduced pressure.

[2] = Process stabilization of polypropylene at 525° F.: melt flow rate (ASTM D1238); conditions: 0.075% by weight of each additive, 0.075% calcium stearate, 525° F.
Protocol: as §1
After each of the first, third and fifth extrusions, the melt flow rate (in grams/10 minutes) is determined by ASTM method D1238 on the pellets obtained from the extruder.

[3] = Solubility in LLDPE film by diffusion-in, X-ray fluorescence; type: physicochemical
Protocol: Experiments are carried out to determine the solubility of the instant compound into linear low density polyethylene (LLDPE) films at 20° C., 40° C. and 60° C. by diffusion-in of a relatively homogeneous particle size (<70 microns) of the test sample suspended in silicon oil.
Each sample is carefully ground with a mortar and pestle and the particle size below 70 microns is separated by sieving with a 200 mesh screen. The powder is then suspended in silicon oil (polydimethylsiloxane, L-45, Union Carbide Chemicals) at a concentration of approximately 38% (wt/wt). A few drops of this suspension is placed on a 10 mil (0.254 mm) thick, 2"×2" (5.08 cm×5.08 cm) compression molded film and a second film of the same dimension is placed on top. The films are gently pressed together so that the suspension forms a thin liquid layer between the polymer films. Excess suspension is removed and the procedure is repeated till a stack of eight films (six films for evaluation) are prepared. The stack is then placed between two 2.5"×2.5" (6.35 cm×6.35 cm) ceramic tiles and wrapped in aluminum foil and held together with a G-clamp. Each stack is aged at 20° C., 40° C. and 60° C. under a nitrogen atmosphere. At specified intervals, a single film is removed from the stack and the excess suspension is washed from the film with hexane. The film is then analyzed by X-ray fluorescence for total phosphorus content. LLDPE containing 0, 1000 ppm and 2000 ppm of the test compound are used as standard controls for this X-ray fluorescence method.

[4] = Solubility in lubricating oil (Mobil BB oil); type: physicochemical
Protocol: The following experiments are performed to determine the solubility of amorphous compound A and crystalline compound B in Mobil BB oil. Both compounds have the same uniform particle sizes (40-70 micron).
Compound A=amorphous form of 2,2',2"-nitrilo-[triethyl-tris-(3,3',5,5'-tetra-tert-butyl-1,1'-biphenyl-2,2'-diyl) phosphite], prepared in accordance with instant Example 1.
Compound B=crystalline form of 2,2',2"-nitrilo[triethyl-tris-(3,3',5,5'-tetra-tert-butyl-1,1'-biphenyl-2,2'-diyl) phosphite], prepared in accordance with Example 4 of U.S. Pat. No. 4,318,845.
Into a vial of 980 mg. of Mobil BB oil is added 20 mg. of compound A at ambient temperature. For the first 30 minutes, the vial is shaken every 10 minutes. After the initial 30 minutes, the vial is left standing.
Into a vial of 980 mg. of Mobil BB oil is added 20 mg. of compound B at ambient temperature. For the first 30 minutes, the vial is shaken every 10 minutes. After the initial 30 minutes, the vial is left standing.
Into a vial of 980 mg. of Mobil BB oil is added 20 mg. of compound A at ambient temperature. The vial is then placed into a 60° C. oil bath.
Into a vial of 980 mg. of Mobil BB oil is added 20 mg. of compound B at ambient temperature. The vial is then placed into a 60° C. oil bath.
Into a vial of 990 mg. of Mobil BB oil is added 10 mg. of compound A at ambient temperature. […] is shaken every 10 minutes. After the initial 30 minutes, the vial is left standing.
Into a vial of 990 mg. of Mobil BB oil is added 10 mg. of compound B at ambient temperature. […] is shaken every 10 minutes. After the initial 30 minutes, the vial is left standing.

[5] = Solubility in lubricating oil (Mobil BB oil); type: physicochemical; conditions: 1% by weight in Mobil BB oil (Exp. 4f), at 60° C. per footnote
[6] = Apparent bulk density (ASTM D-1895); type: physicochemical
Protocol: The apparent bulk density of the solids is measured according to the method of ASTM D-1895 (79). A higher apparent bulk density allows for a greater mass per unit volume which affords advantages in packaging of the solid product, such as lower costs for the packaging material, less storage space is required, etc.

CC(C)(C)c1cc(CCC(=O)OCC(COC(=O)CCc2cc(C(C)(C)C)c(O)c(C(C)(C)C)c2)(COC(=O)CCc2cc(C(C)(C)C)c(O)c(C(C)(C)C)c2)COC(=O)CCc2cc(C(C)(C)C)c(O)c(C(C)(C)C)c2)cc(C(C)(C)C)c1O [Base, neopentanetetrayl tetrakis(3,5di-tert-butyl-4-hydroxyhydrocinnamate)]
Yellowness Index (YI) Values after Extrusion 5 ([1]; after fifth extrusion): 11.0
Yellowness Index (YI) Values after Extrusion 1 ([1]; after first extrusion): 7.6
Yellowness Index (YI) Values after Extrusion 3 ([1]; after third extrusion): 9.0
Melt Flow after Extrusion 5 ([2]; after fifth extrusion): 17.5 grams/10 minutes
Melt Flow after Extrusion 1 ([2]; after first extrusion): 8.1 grams/10 minutes
Melt Flow after Extrusion 3 ([2]; after third extrusion): 12.9 grams/10 minutes

CC(C)(C)c1cc(C(C)(C)C)c2op(OCCN(CCOp3oc4c(C(C)(C)C)cc(C(C)(C)C)cc4c4cc(C(C)(C)C)cc(C(C)(C)C)c4o3)CCOp3oc4c(C(C)(C)C)cc(C(C)(C)C)cc4c4cc(C(C)(C)C)cc(C(C)(C)C)c4o3)oc3c(C(C)(C)C)cc(C(C)(C)C)cc3c2c1 [Example 4 of U.S. 4,318,845, 2,2',2"-nitrilo[triethyl-tris-(3,3',5,5'-tetra-tert-butyl-1,1'-biphenyl-2,2'-diyl)phosphite], reference compound]
Solubility of Compound in LLDPE at 20° C. ([3]; interval 15 (time unit not given)): 1500 ppm
Solubility of Compound in LLDPE at 20° C. ([3]; interval 28 (time unit not given)): 1000 ppm
Solubility of Compound in LLDPE at 20° C. ([3]; interval 35 (time unit not given)): 1200 ppm
Solubility of Compound in LLDPE at 20° C. ([3]; interval 44 (time unit not given)): 1200 ppm
Solubility of Compound in LLDPE at 40° C. ([3]; interval 10 (time unit not given)): 500 ppm
Solubility of Compound in LLDPE at 40° C. ([3]; interval 17 (time unit not given)): 1750 ppm
Solubility of Compound in LLDPE at 40° C. ([3]; interval 25 (time unit not given)): 750 ppm
Solubility of Compound in LLDPE at 40° C. ([3]; interval 34 (time unit not given)): 400 ppm
Solubility of Compound in LLDPE at 40° C. ([3]; interval 40 (time unit not given)): 600 ppm
Solubility of Compound in LLDPE at 40° C. ([3]; interval 47 (time unit not given)): 1400 ppm
Solubility of Compound in LLDPE at 20° C. ([3]; third section, interval 6 (time unit not given)): 1000 ppm
Solubility of Compound in LLDPE at 20° C. ([3]; third section, interval 14 (time unit not given)): 800 ppm
Solubility of Compound in LLDPE at 20° C. ([3]; third section, interval 22 (time unit not given)): 1000 ppm
Solubility of Compound in LLDPE at 20° C. ([3]; third section, interval 28 (time unit not given)): 900 ppm
Solubility of Compound in LLDPE at 20° C. ([3]; third section, interval 37 (time unit not given)): 900 ppm
Observation ([4]; 1% by weight in Mobil BB oil, RT, 1.5 hrs., listed as B): Cloudy
Observation ([4]; 1% by weight in Mobil BB oil, RT, 1.5 hrs., listed as compound B): cloudy suspension
Time to clear solution ([4]; 1% by weight in Mobil BB oil, RT, listed as compound B): 16 h
Observation ([4]; 2% by weight in Mobil BB oil, 60° C. oil bath, 10 min., listed as B): Cloudy
Observation ([4]; 2% by weight in Mobil BB oil, 60° C. oil bath, 10 min., listed as compound B): cloudy suspension
Time to clear solution ([4]; 2% by weight in Mobil BB oil, 60° C. oil bath, listed as B): 5 h
Time to clear solution ([4]; 2% by weight in Mobil BB oil, 60° C. oil bath, listed as compound B): 16 h
Observation ([4]; 2% by weight in Mobil BB oil, RT, 2.5 hrs., listed as B): Cloudy
Observation ([4]; 2% by weight in Mobil BB oil, RT, 2.5 hrs., listed as compound B): cloudy suspension
Time to clear solution ([4]; 2% by weight in Mobil BB oil, RT, listed as B): 16 h
Time to clear solution ([4]; 2% by weight in Mobil BB oil, RT, listed as compound B): 16 h
Time to clear solution [5]: 5 h
Bulk Density [6]: 0.44 g/mL
